Data on one sequence can be found in paper PMC4473678, “Swedish mutant APP-based BACE1 binding site peptide reduces APP β-cleavage and cerebral Aβ levels in Alzheimer’s mice” (Scientific Reports, 2015).

“Also recorded” adds a separate entry of the source.

Experiment [1] deals with WT mice. Briefly: Radial arm water maze (RAWM), WT mice. Type of experiment: in vivo, mouse. The note with it: 100 nmol/kg i.p. daily, 8 weeks, n = 10 per treatment, listed as TAT-APPsweBBP.
Experiment [2] deals with 5XFAD mice. Description: β-amyloid immunohistochemistry (4G8), 5XFAD mice. Format: in vivo, mouse. The note with it: 100 nmol/kg i.p. daily, 8 weeks, RSC, EC and H regions, n = 10, 5 female/5 male, listed as TAT-APPsweBBP. As to the method: Transgenic AD mice [5XFAD; B6SJL-Tg(APPSwFlLon,PSEN1*M146L*L286V) 6799Vas/Mmjax] at 2.5 months of age were obtained from the Jackson Laboratory (Bar Harbor, ME) and housed and maintained in the Animal Facility of College of Medicine at University of South Florida (USF). The mice at 3.5 months of age were treated with TAT-APPsweBBP, TAT peptide (100 nmol/kg in 100 μL PBS) or PBS (100 μL) daily by intraperitioneal injection (i.p.) for eight consecutive weeks. The mice were subjected to behavioral testing after 8-week treatment and then euthanized for immunohistochemical, WB and ELISA analyses. Animals were housed and maintained at USF and all experiments were in compliance with protocols approved by USF Institutional Animal Care and Use Committee. All methods were performed in accordance with relevant guidelines and regulations.
For paraffin brain tissues, we sectioned five coronal sections per region with a 100-μm interval and a thickness of 5-μm for retrosplenial cortex (RSC), entorhinal cortex (EC), and hippocampus (H), located at bregma −2.92 to −3.64 mm. […] Images were acquired as digitized tagged-image format files (to retain maximum resolution) using a BX60 microscope with an attached CCD camera system (DP-70, Olympus, Tokyo, Japan), and digital images were routed into a Windows PC for quantitative analyses using SimplePCI software (Hamamatsu Photonics, Hamamatsu, Shizuoka, Japan). […]

Regarding “YGRKKRRQRRREISEVNLDAEFR [APPsweBBP conjugated with the membrane fusion fragment of HIV-1 Tat protein]”, the RAWM entry-arm errors entry in experiment [1] is “no difference among the various treatment groups; also recorded: no significant difference between WT treatment groups”. Moreover, the “β-amyloid plaques / 4G8 immunoreactive area” value in experiment [2] is “greatly reduced; also recorded: markedly reduced β-amyloid plaques; also recorded: significant differences between TAT-APPsweBBP and TAT peptide treatment groups (**P < 0.01)”.
